Key:
[1] = cells; conditions: Homo sapiens, HCT-116, 72 h
Description: Antiproliferative activity against human HCT116 cells after 72 hrs by MTT assay

[2] = cells; conditions: Homo sapiens, A549, 72 h
Description: Antiproliferative activity against human A549 cells after 72 hrs by MTT assay

[3] = Antiproliferative activity against human HepG2 cells after 72 hrs by MTT assay; type: functional, cell-based; conditions: HepG2, 72 h
[4] = Antiproliferative activity against human MDA-MB-231 cells after 72 hrs by MTT assay; type: functional, cell-based; conditions: MDA-MB-231, 72 h
[5] = Antiproliferative activity against human HL60 cells after 72 hrs by MTT assay; type: functional, cell-based; conditions: HL-60, 72 h
[6] = biological target: T1, Dihydrofolate reductase (Homo sapiens, UniProt P00374); assay: Inhibition of recombinant human DHFR using DHF as substrate measured every 5 sec over 6 mins in presence of NADPH by UV-Visible spectrophotometric method relative to control
T1 sequence (P00374 whole entry): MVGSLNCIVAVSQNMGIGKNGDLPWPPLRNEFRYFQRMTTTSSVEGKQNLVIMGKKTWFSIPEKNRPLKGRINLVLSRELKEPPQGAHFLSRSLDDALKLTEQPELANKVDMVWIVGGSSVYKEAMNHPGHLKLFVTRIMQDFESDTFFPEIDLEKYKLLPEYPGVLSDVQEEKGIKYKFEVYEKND

Row | Compound | IC50 [1] [nM] | IC50 [2] [nM] | IC50 [3] [nM] | IC50 ([4]; read-out: IC50) [nM] | IC50 [5] [nM] | IC50 [6] [nM] | IC50 [4] [nM]
1 | NC1=NC2(CCSCC2)N(OCCCOc2ccc(Cl)c(Cl)c2)C(N)=N1 | 1 | 1 | 70 | 10 | 140 |  | 
2 | NC1=NC2(CCOCC2)N(OCCCOc2ccc(Br)cc2)C(N)=N1 | 320 | 280 |  |  | 310 | 32.5 | 
3 | NC1=NC2(CCOCC2)N(OCCCOc2cc(Cl)c(Cl)cc2Cl)C(N)=N1 | 2750 | 680 |  |  | 2360 | 36 | 
4 | NC1=NC2(CCSCC2)N(OCCCOc2ccccc2Br)C(N)=N1 | 1 | 40 | 90 | 10 | 180 |  | 
5 | NC1=NC2(CCOCC2)N(OCCCOc2ccc(Cl)cc2)C(N)=N1 | 690 | 360 |  |  | 330 | 33.6 | 
6 | NC1=NC2(CCSCC2)N(OCCCOc2ccccc2Cl)C(N)=N1 | 1 | 80 | 80 | 80 | 390 |  | 
7 | COc1ccc(OCCCON2C(N)=NC(N)=NC23CCOCC3)cc1 | 1500 | 660 |  |  | 1670 | 11.1 | 
8 | COc1ccc(OCCCON2C(N)=NC(N)=NC23CCSCC3)cc1 | 70 | 240 | 880 | 350 | 500 |  | 
9 | NC1=NC2(CCSCC2)N(OCCCOc2cc(Cl)c(Cl)cc2Cl)C(N)=N1 | 1 | > 100000 | > 100000 | 110 | 730 |  | 
10 | NC1=NC2(CCOCC2)N(OCCCOc2cccc(Cl)c2Cl)C(N)=N1 | 5 | 100 | 330 | 140 | 440 |  | 
11 | NC1=NC2(CCSCC2)N(OCCCOc2cccc(Cl)c2Cl)C(N)=N1 | 1 | 1 | 50 | 1 | 30 |  | 
12 | Cc1cc(C)cc(OCCCON2C(N)=NC(N)=NC23CCOCC3)c1 | 190 | 710 | 680 | 3570 | 720 |  | 
13 | NC1=NC2(CCOCC2)N(OCCCOc2cccc(Br)c2)C(N)=N1 | 40 | 160 | 320 | 400 | 560 |  | 
14 | NC1=NC2(CCOCC2)N(OCCCOc2cccc(Cl)c2)C(N)=N1 | 120 | 150 | 150 | 1020 | 520 |  | 
15 | NC1=NC2(CCOCC2)N(OCCCOc2ccccc2Br)C(N)=N1 | 30 | 160 | 860 | 910 | 610 |  | 
16 | Cc1ccc(OCCCON2C(N)=NC(N)=NC23CCOCC3)cc1 | 2390 | 1060 |  |  | 2580 | 56.7 | 
17 | NC1=NC2(CCOCC2)N(OCCCOc2ccccc2Cl)C(N)=N1 | 70 | 2700 | 1750 | 1430 | 660 |  | 
18 | NC1=NC2(CCSCC2)N(OCCCOc2cccc(Cl)c2)C(N)=N1 | 1 | 60 | 90 | 130 | 260 |  | 
19 | CC(C)(C)c1ccc(OCCCON2C(N)=NC(N)=NC23CCOCC3)cc1 | 1610 | 500 |  |  | 870 | 3.72 | 
20 | NC1=NC2(CCSCC2)N(OCCCOc2cccc(Br)c2)C(N)=N1 | 1 | 50 | 90 | 60 | 200 |  | 
21 | CC(C)(C)c1ccc(OCCCON2C(N)=NC(N)=NC23CCSCC3)cc1 | 1 | 1 | 70 | 1 | 280 |  | 
22 | COc1cccc2c1C(=O)c1c(O)c3c(c(O)c1C2=O)C[C@@](O)(C(=O)CO)C[C@@H]3O[C@H]1C[C@H](N)[C@H](O)[C@H](C)O1 [DOXORUBICIN] | 310 | 120 |  |  |  |  | 720

From ChEMBL document CHEMBL3877300, “Design, synthesis, docking studies and biological evaluation of novel dihydro-1,3,5-triazines as human DHFR inhibitors” (Eur J Med Chem, 2017)
